Data reported in paper PMC8465942, “Cyano- and Ketone-Containing Selenoesters as Multi-Target Compounds against Resistant Cancers” (Cancers, 2021).
Entries after “also recorded” stand apart in the source; their conditions may differ. Marks after values point to notes of the source that are not given here.

What was measured:
[1] = tested on: Colo 205 human colonic adenocarcinoma cell line; assay: Cytotoxicity (MTT) on sensitive Colo 205 cells; assay type: cell-based; conditions: for IC50: Homo sapiens, COLO 205, 24 h, MTT, read-out: Colo 205 (IC50 µM) Mean; for SI MRC-5/Colo 205: ratio IC50 non-tumour cells / IC50 cancer cells
Text: (§1) Three cell lines have been used in this study: the doxorubicin-sensitive Colo 205 (CCL-222, ATCC, Manassas, VA, USA) human colonic adenocarcinoma cell line; the multidrug resistant Colo 320/MDR-LRP expressing P-gp (MDR1)-LRP (CCL-220.1, ATCC) human colonic adenocarcinoma cell line; and the MRC-5 human embryonal lung fibroblast cell line (CCL-171, ATCC). The colon adenocarcinoma cell lines were purchased from LGC Promochem (Teddington, UK), and the MRC-5 cell line was purchased from Sigma-Aldrich (Merck KGaA, Darmstadt, Germany). Their culture conditions are as follows: Colo 205 (CCL-222, ATCC) and Colo 320/MDR-LRP expressing P-gp (MDR1)-LRP (CCL-220.1, ATCC) human colon adenocarcinoma cell lines were cultured in RPMI 1640 medium, supplemented with 10% FBS, 2 mM L-glutamine, 1 mM Na-pyruvate, and […]. The cell lines were incubated at 37 °C, 5% CO2, and 95% air atmosphere. The semi-adherent human colon cancer cells were detached with a Trypsin-Versene (EDTA) solution for 5 min at 37 °C. MRC-5 human embryonal lung fibroblast cells were cultured in EMEM containing 4.5 g/L of glucose and supplemented with a non-essential amino acid mixture, a selection of vitamins, and 10% FBS. The cell lines were incubated at 37 °C, 5% CO2, and 95% air atmosphere.
(§2) The effects of increasing concentrations of the compounds on cell growth were tested in 96-well flat-bottomed microtiter plates. Moreover, 10^4 of human colonic adenocarcinoma cells in 100 μL of the medium (RPMI-1640) were added to each well, except for the medium control wells. The adherent human embryonic lung fibroblast cell line was seeded in the EMEM medium for 4 h before the assay. The two-fold serial dilutions of the compounds were made in a separate plate (0.19–100 μM), and then transferred to the plates containing the adherent corresponding cell line. Culture plates were incubated at 37 °C for 24 h. At the end of the incubation period, 20 μL of MTT (thiazolyl blue tetrazolium bromide) solution (from a 5 mg/mL stock solution) were added to each well. After incubation at 37 °C for 4 h, 100 μL of sodium dodecyl sulfate (SDS) solution (10% SDS in 0.01 M HCl) was added to each well, and the plates were further incubated at 37 °C overnight. Cell growth was determined by measuring the optical density (OD) at 540 nm (ref. 630 nm) with a Multiscan EX ELISA reader (Thermo Labsystems, Cheshire, WA, USA). Inhibition of cell growth was expressed as IC50 values, defined as the inhibitory dose that reduces the growth of the cells exposed to the tested compounds by 50%. IC50 values and the SD of triplicate experiments were calculated by using GraphPad Prism software version 5.00 for Windows, with a non-linear regression curve fit (GraphPad Software, San Diego, CA, USA; www.graphpad.com, accessed on 12 July 2021). Doxorubicin (from a 2 mg/mL stock solution, Teva Pharmaceuticals) was used as a positive control.
(§3) The selectivity indexes (SI) were calculated as the ratio of the IC50 value in the non-tumour cells and the IC50 in the cancer cell lines. The compound’s activity towards cancer cells is considered as strongly selective if the selectivity index (SI) value is higher than 6, moderately selective if 3 < SI < 6, slightly selective if 1 < SI < 3, and non-selective if SI is lower than 1 [16].

[2] = tested on: Colo 320/MDR-LRP human colonic adenocarcinoma cell line; assay: Cytotoxicity (MTT) on resistant Colo 320 cells; assay type: cell-based; conditions: for IC50: Homo sapiens, COLO 320, 24 h, MTT, read-out: Colo 320 (IC50 µM) Mean; for SI MRC-5/Colo 320: ratio IC50 non-tumour cells / IC50 cancer cells
Text: as §1, §2, §3

[3] = Cytotoxicity (MTT) on normal MRC-5 fibroblasts; assay type: cell-based; conditions: human
Text: as §1, §2

[4] = tested on: HepG2 (hepatocellular carcinoma); assay: Cytotoxicity on HepG2 cells; assay type: cell-based; conditions: Homo sapiens
Description: (§4) The activity of selenoesters was tested on several cancer cell lines, including HepG2 (hepatocellular carcinoma, CCL-23TM, ATCC); HeLa (cervical adenocarcinoma, CCL-2TM, ATCC); B16 (skin melanoma, CCL-6322TM, ATCC); and a non-cancerous cell line, HDF (human dermal fibroblasts, Sigma-Aldrich). HepG2, HeLa, B16, and HDF cell lines were cultivated in EMEM medium supplemented with 10% FBS, 2 mM L-glutamine, and 1% penicillin-streptomycin mixture. The HaCaT cell line was cultivated in DMEM medium supplemented with 10% FBS and 1% penicillin-streptomycin mixture. All of the cells were cultivated in a CO2 incubator (5% CO2, 37 °C). Twice per week, the cell lines were passaged according to a standardized protocol with a trypsin-EDTA solution.
as §3

[5] = tested on: HeLa (cervical adenocarcinoma); assay: Cytotoxicity on HeLa cells; assay type: cell-based; conditions: Homo sapiens
Description: as §4, §3

B16 (skin melanoma) = assay: Cytotoxicity on B16 cells; assay type: cell-based, murine; conditions: Mus musculus
Description: as §4, §3

[6] = tested on: resistant Colo 320 colon adenocarcinoma cells expressing the ABCB1 transporter; assay: Checkerboard combination assay with doxorubicin; assay type: cell-based, human
Description: A checkerboard microplate method was applied to study the effect of drug interactions between the selenocompounds and the chemotherapeutic drug doxorubicin on resistant Colo 320 colon adenocarcinoma cells expressing the ABCB1 transporter. Results were expressed in terms of the combination index (CI) values at 50% growth inhibition (ED50), which were determined by using CompuSyn software to plot 4 or 5 data points for each ratio.
To perform the experiment, the dilutions of doxorubicin were made in a horizontal direction in 100 µL, and the dilutions of the Se-compounds were made vertically in the microtiter plate in a volume of 50 µL. The cells were re-suspended in the culture medium and distributed into each well in 50 µL portions containing 6000 cells. The plates were incubated for 72 h at 37 °C in a CO2 incubator. The cell growth rate was determined after MTT staining. At the end of the incubation period, 20 μL of MTT solution was added to each well. After incubation at 37 °C for 4 h, 100 μL of SDS was added to each well and the plates were further incubated at 37 °C overnight. The optical density (OD) was measured at 540/630 nm with the Multiscan EX ELISA reader.

HaCaT cell line = assay: Toxicity on HaCaT cells (IC10 used as dose); assay type: cell-based; conditions: Homo sapiens, concentration inhibiting 10% of the population, highest non-toxic concentration, read-out: Dose IC10
Description: as §4, with “solution. […]” for “solution.”
Wound healing activity of selenoesters was evaluated as the ability of the cells to migrate and close the gap created on the monolayer of human keratinocytes (HaCaT cell line). The tested substances were applied in the highest possible non-toxic concentration (IC10, concentration inhibiting 10% of the population). In general, ketone-selenoesters were more toxic (except K4 and K1) than cyano-selenoesters (except N4); therefore, they were applied at lower doses (0.17–0.30 µM) when compared to cyanoselenoesters (0.36–0.64 µM). Compounds K1, K4, and N4 were applied at a concentration of 0.30, 0.46, and 0.20 µM, respectively. As could be seen in Table 8, all ketone-selenoesters stimulated wound healing more effectively in comparison to both untreated control (p < 0.0000005) and allantoin (p < 0.00005). […] Only samples N1, N2, N4, and N7 closed effectively the damaged wound in 24 h, with the gap closure around 70%.

[7] = tested on: HepG2 (hepatocellular carcinoma); assay: Cytotoxicity on HepG2 cells; assay type: cell-based, human; conditions: ratio IC50 non-tumour cells / IC50 cancer cells
[8] = tested on: human keratinocyte (HaCaT); assay: Wound healing scratch assay; assay type: cell-based; conditions: 50 µg/mL positive control
Description: Wound healing activity was realized using human keratinocyte (HaCaT, Thermo Fisher Scientific, Waltham, MA, USA). Wound healing was measured in vitro by scratch assay, as the migration rate of the cells to close the gap was created, as described by Ling et al., with slight modifications. Briefly, HaCaT cells at the concentration of 5×10^5 cells were seeded into 12-well plates and incubated at 37 °C and 5% CO2 until the cells formed a uniform layer. After layer formation, the cells were washed with PBS and then scratched with a sterile micropipette tip. […] The images of the scratch area were captured using an inverted microscope in 4× magnification at different time intervals (0 h, 24 h, 48 h) and evaluated using ImageJ software (National Institutes of Health, Bethesda, MD, USA). All of the experiments were performed in four replicates, and a minimum of five measurements were considered from each image captured. Dean–Dixon’s test was used to remove the outliners in the values measured, and further statistical significances between the groups were established by t-test (Excel, Microsoft Office, Redmond, WA, USA). The wound closure was calculated as the ratio of the gap size at the beginning minus the gap size at the evaluated time.

Structure (SMILES) | IC50 [1] [µM] | SI MRC-5/Colo 205 [1] | IC50 [2] [µM] | SI MRC-5/Colo 320 [2] | IC50 at 24 h [3] [nM] | IC50 [4] [µM] | IC50 [5] [µM] | IC50 (B16 (skin melanoma)) [µM] | IC10 (HaCaT cell line) [nM] | melting point [°C] | SI MRC-5/HepG2 [7] | also measured
N#CC[Se]C(=O)c1cccs1 [N1, Se-(Cyanomethyl) Thiophene-2-carboselenoate] | 2.37 | >6 * | 7.64 | >6 * | > 100000 | 11.3 | 2 | 1.9 | 400 | 50 to 52 | >6 * | Interaction with doxorubicin ([6]; in at least one of the ratios tested): synergistic manner; also recorded: synergistic effect; Type of Interaction ([6]; ratio 1.7:1, starting conc. 15 µM): Antagonism; Type of Interaction ([6]; ratio 3.4:1, starting conc. 15 µM): Synergism; Type of Interaction ([6]; ratio 6.8:1, starting conc. 15 µM): Synergism; Type of Interaction ([6]; ratio 13.6:1, starting conc. 15 µM): Additive effect; Type of Interaction ([6]; ratio 27.2:1, starting conc. 15 µM): Synergism
N#CC[Se]C(=O)c1ccc(F)c(Cl)c1 [N6, Se-(Cyanomethyl) 3-Chloro-4-fluorobenzoselenoate] | 2.24 | >6 * | 5.19 | >6 * | > 100000 | 9.6 | 1.3 | 1.7 | 600 | 73 to 75 | >6 * | Type of Interaction ([6]; ratio 1.2:1, starting conc. 10 µM): Antagonism; Type of Interaction ([6]; ratio 4.8:1, starting conc. 10 µM): Antagonism; Type of Interaction ([6]; ratio 9.6:1, starting conc. 10 µM): Antagonism; Type of Interaction ([6]; ratio 19.2:1, starting conc. 10 µM): Antagonism; Type of Interaction ([6]; ratio 38.4:1, starting conc. 10 µM): Antagonism
NC(=O)NC1NC(=O)NC1=O (centres unmarked) [PC, Allantoin] |  |  |  |  |  |  |  |  |  |  |  | Closure (%) 24 h ([8]; 24 h): 70.37%; Closure (%) 48 h ([8]; 48 h): 84.63%
